Measurements published in patent US20250026741A1, “INHIBITORS OF THE ONCOGENIC SHP2 PHOSPHATASE AND USES THEREOF” (Sanford Burnham Prebys Medical Discovery Institute, priority 2021, published 2025).

Assays:
SHP2-E76K = SHP2-E76K (Homo sapiens (Human), UniProt Q06124, E76K); test: Michaelis-Menten kinetics and mode of inhibition; assay type: biochemical
Experimental: Using nonlinear regression, initial rates at various inhibitor and substrate concentrations were fitted to the Michaelis-Menten equations for competitive, noncompetitive, uncompetitive, and mixed inhibition. Fitting models were then compared using Akaike's Information Criterion (AIC), and inhibition mode probabilities were calculated from the differences between the corresponding second-order corrected AIC scores.
#02 was tested with SHP2-E76K using a similar assay format as described above. #02 or vehicle (DMSO) were spotted in triplicate into a black Greiner FLUOTRAC™ 200 384-well microplate (#781076, Greiner) using an Echo 555 Liquid Handler (Labcyte, Inc., San Jose, CA). SHP2-E76K working solution was prepared and dispensed as described above and incubated with inhibitor for 20 min at RT. DiFMUP working solutions at 5×final concentration were prepared in 50 mM Bis-Tris pH 6.0, 50 mMNaCl, and 0.01% Tween 20. […] Fluorescence intensity was measured in kinetic mode as described above. The initial rates were determined from the linear progression curves of each SHP2-E76K reaction. […] For a comparison of the fitting results, the second-order corrected Akaike's Information Criterion (AICc) was calculated using equation 1, where N is the number of data points, SS the absolute sum of squares, and K the number of parameters fit by nonlinear regression plus 1.

[1] = tested on: p-ERK1/2 in U-937 AML cells (SHP2 G60R); test: Phospho-ERK1/2 immunoblot analysis, U-937; assay type: cell-based; details: U-937, 24 h; #02 1, 3, 10, 30 μM; RMC-4550 1 μM
Description: Oncogenic gain-of-function mutations in SHP2 drive leukemogenesis in a significant number of leukemia patients. However, due to their unique mechanism of action, the existing SHP2 allosteric inhibitors lack activity against the most common SHP2 oncogenic variants. Thus, we tested whether #02 can inhibit the growth of leukemia cells expressing oncogenic SHP2 variants. […] Using the U-937 AML cell line, which harbors a G60R oncogenic mutation in SHP2, we treated cells with either #02 or RMC-4550 at various concentrations, ranging from 0.123 to 30 μM (FIG. 4A). […] We also assessed the effects of #02 and RMC-4550 on ERK1/2 activation in the SHP2 mutant U-937 cell line. Similar to the immunoblot experiments described above, U-937 AML cells were treated with either vehicle control (DMSO), #02 (1, 3, 10, or 30 μM), or with RMC-4550 (1 μM) for 24 h and processed for p-ERK1/2 immunoblot analysis (FIG. 4B).
Total protein extracts were prepared in modified RIPA lysis buffer (25 mM Tris-HCl, pH 7.4, 10% glycerol, 0.2% Triton™ X-100, 150 mM NaCl, 2 mM Na3VO4, 1 mM EDTA) containing a protease inhibitor cocktail (Roche Applied Science, Indianapolis, IN). […] Densitometric quantitation of immunoblots was performed using Image Studio Lite Software. Changes of phosphorylated ERK1/2 to total ERK1/2 rations are expressed as percentage of the vehicle-treated controls. […]

[2] = tested on: patient-derived AML cells; test: Viability of AML patient-derived cells; assay type: cell-based, human; details: 10 μM, two patient samples, 2 d, 4 d, or 6 d
Description: Patient-derived AML cells were obtained from Carol Burian and Dr. James Mason (Scripps MD Anderson, La Jolla, CA) under approved IRB protocol 13-6180. Peripheral blood mononuclear cells (PBMCs) were isolated by traditional Ficoll-Paque™ PLUS (17-1440-02, GE Healthcare) centrifugation according to the manufacturer's instructions, and red blood cells were lysed using RBC Lysis Buffer (Alfa Aesar, cat. #J62990). Final PBMCs were resuspended in Bambanker serum-free freezing medium (Wako Pure Chemical Industries, Ltd.) and stored frozen before cell viability was assessed as described below.
Viability of AML, esophageal carcinoma, and TF-1 cells was assessed using the ATP-depletion assay CellTiter-Glo® (Promega). Cells were harvested at 1×10^6/mL to 2×10^6 cells/mL with cell numbers determined by trypan blue using the Countess Cell counter (Thermo Scientific) and resuspended in culture media. 3K cells (in […]) were seeded in a 384-well format white, clear bottom microplate (#781098, Greiner) spotted with test compound or vehicle control (DMSO) using an Echo 555 Liquid Handler. […] Luminescence was read on a Tecan Spark® Multimode Microplate Reader and data analyzed using Graph Pad Prism software.

[3] = tested on: p-ERK1/2 in MOLM-13 AML cells; test: Phospho-ERK1/2 immunoblot analysis, MOLM-13; assay type: cell-based; details: #02 3, 10, 30 μM, RMC-4550 1 μM
Experimental: Because SHP2 activity is critical for ERK activation, we used phospho-ERK1/2 (p-ERK1/2) as a more direct readout of SHP2 inhibitor efficacy. […] However, a greater effect of #02 was observed after 24 h treatment. […] This p-ERK rebound in MOLM-13 cells treated with RMC-4550 is reminiscent of previously reported data from human hepatoma Hep3B cells treated with SHP099.
Total protein extracts were prepared in modified RIPA lysis buffer (25 mM Tris-HCl, pH 7.4, 10% glycerol, 0.2% Triton™ X-100, 150 mM NaCl, 2 mM Na3VO4, 1 mM EDTA) containing a protease inhibitor cocktail (Roche Applied Science, Indianapolis, IN). Equal amounts of protein were separated on 4-12% (p-ERK1/2 blots) or 4-20% (SHP2 blots) Bis-Tris gels by SDS-PAGE and transferred to nitrocellulose (p-ERK1/2 blots) or 0.2 μm PVDF (SHP2 blots) membranes. Membranes were blocked in 5% dry milk (Bio-Rad, Hercules, CA) in TBS-Tween 20 (0.1% vol/vol; TBS-T) for 1 h at room temperature. Protein-bound membranes were incubated with indicated primary antibody overnight at 4° C. After washing three times with TBS-T, membranes were incubated for 1 h with horseradish peroxidase-conjugated secondary antibody, then visualized by an ECL Prime detection system (GE Healthcare). Immunoblotting experiments were carried out at least three times and representative images are shown. Densitometric quantitation of immunoblots was performed using Image Studio Lite Software. Changes of phosphorylated ERK1/2 to total ERK1/2 rations are expressed as percentage of the vehicle-treated controls. The following antibodies were used: Phospho-Erk1/2 Ab, Cell Signaling, #9101S; total Erk1/2 Ab, Cell Signaling, #9102S; SHP2 Ab, Bethyl, A301-544A, lot #1; GAPDH (14C10) mAb, Cell Signaling, #2118S, lot #14.

Chain of SHP2-E76K (Q06124 whole entry E76K): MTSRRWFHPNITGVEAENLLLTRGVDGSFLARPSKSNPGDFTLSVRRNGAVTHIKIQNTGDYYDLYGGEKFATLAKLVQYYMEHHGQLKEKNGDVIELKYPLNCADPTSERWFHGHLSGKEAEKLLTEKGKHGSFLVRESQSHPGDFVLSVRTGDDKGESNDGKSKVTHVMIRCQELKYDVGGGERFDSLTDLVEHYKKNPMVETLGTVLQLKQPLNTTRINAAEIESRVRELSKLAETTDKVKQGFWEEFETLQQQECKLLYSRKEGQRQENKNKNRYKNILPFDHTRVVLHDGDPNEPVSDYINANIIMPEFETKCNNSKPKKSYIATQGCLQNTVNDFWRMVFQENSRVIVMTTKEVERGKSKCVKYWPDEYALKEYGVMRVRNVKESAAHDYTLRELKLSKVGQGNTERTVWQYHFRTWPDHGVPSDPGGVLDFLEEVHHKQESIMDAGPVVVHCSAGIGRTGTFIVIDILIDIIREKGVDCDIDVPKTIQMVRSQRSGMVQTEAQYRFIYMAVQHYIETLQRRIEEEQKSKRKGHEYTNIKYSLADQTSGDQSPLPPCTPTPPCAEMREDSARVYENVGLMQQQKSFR

Ki (SHP2-E76K; DiFMUP substrate, read-out: inhibition constant (Ki) for noncompetitive inhibition): 1.8 µM
SMILES: O=C(Nc1ccccc1)c1cc(-c2ccc(/C=C3\Sc4ccccc4C3=O)o2)ccc1O [#02, (Z)-2-hydroxy-5-(5-((3-oxobenzo[b]thiophen-2(3H)-ylidene)methyl)furan-2-yl)-N-phenylbenzamide]
mode of inhibition (SHP2-E76K; AIC model comparison): noncompetitive or mixed inhibition mechanism | ERK1/2 activation (p-ERK1/2 levels) [1]: dose-dependently inhibited ERK1/2 activation | effect on growth of patient-derived AML samples [2]: inhibited the growth of both AML patient samples | ERK1/2 activation (p-ERK1/2 levels) ([3]; MOLM-13, 3 h treatment): dose-dependently inhibits ERK1/2 activation | ERK1/2 activation (p-ERK1/2 levels) ([3]; MOLM-13, 24 h treatment): dose-dependently inhibits ERK1/2 activation
